Source: patent publication US7638554B2, “Flavanoids as chemotherapeutic, chemopreventive, and antiangiogenic agents” (SRI International, priority 2002, dated 2009)

System: TIMP-1
Test: TIMP-1 protein expression, MCF-10-CA1a cells
Assay type: cell-based, human
Text: Western Blotting. Proteins were separated by gel electrophoresis using 4-12% pre-cast SDS-polyacrylamide gels (Invitrogen, Carlsbad, Calif.) and then electrophoretically transferred onto Hybond™-P membrane (Amersham Biosciences, Piscataway, N.J.). Blots were probed with specific antibodies (Santa Cruz Biotechnology, Inc). The ECL Plus Western Blotting Detection System of Amersham Biosciences (Piscataway, N.J.) and the procedure recommended by the manufacturer was used for the detection of antigens. Protein bands were quantified by analyzing the images obtained using an Alphaimager™ S-3400 (Alpha Innotech Corp., San Leandro, Calif.).
The effects of SR 13179 on the protein expression of TIMP-1, TIMP-2, and membrane-type 1 MMP (MT1-MMP) were studied. SR13179 induced the protein expression of TIMP-2 in a dose- and time-dependent manner. MCF-10-CA1a cells were treated with SR 13179 at 1, 3, or 5 μM concentrations for 48 h, or, alternatively, with […] SR 13179 for 8, 24, or 48 h. Cells were lysed and subjected to Western blotting.
The effect of SR13179 on the extracellular levels of TIMP-2 as well as MMP-2 was also investigated. Treatment of MCF-10CA1a cells with SR13179 at 5 μM concentration caused 5- to 8-fold increase in the secreted level of TIMP-2 and a 2-fold decrease in the extracellular level of MMP-2. […]

With `COc1cc(C2CC(O)c3ccc4ccccc4c3O2)cc(OC)c1OC` (stereo not shown) [SR 13179, 2-(3,4,5-trimethoxyphenyl)-3,4-dihydro-2H-benzo[h]chromen-4-ol] as the compound, how does the TIMP-1 protein levels read?
The TIMP-1 protein levels was “no significant effect”.
